Test results: patent publication US20070225339A1, “Compositions and methods for treating rheumatoid arthritis” (priority 2006, published 2007)
“Also recorded” adds a separate entry of the source. Values belong to the molecule of their own block, whether it stands above or below them.

Legend:
[1] = test system: subjects with moderate or severe RA; assay: Randomized, placebo-controlled, blinded twelve-week study in RA: responses to treatment (ACR, EULAR, DAS28); assay type: in vivo, human; settings: for ACR 20 Response / EULAR Response (moderate or good) / Improvement from baseline in DAS28 / Mean reduction in morning stiffness / Percent Change in Swollen Joints / Percent Change in Tender Joints / Percent Improvement in DAS / Percent reduction in morning stiffness: End of Treatment (Week 12)
Protocol: VX-702 was examined in a randomized, placebo-controlled, multiple-dose, blinded, dose escalation study in 315 subjects with moderate or severe RA.
Subjects were divided into 3 approximately equal-sized groups of 100-105 subjects each. In one group, subjects received 5 mg VX-702 once daily or 2.5 mg VX-702 twice daily (total 5 mg/day) for twelve weeks. Another group received 10 mg VX-702 once daily for twelve weeks. Another group subjects received placebo once daily for twelve weeks.
The subjects had to be between the ages of 18-75 years (inclusive) and have active RA of six months of duration or longer by the ACR revised criteria. The subjects had to have a C-reactive protein (CRP) serum levels of greater than 2 mg/dL at time of randomization, a swollen joint count of eight or greater (of 28) and tender joint count of 10 or greater (of 28). The subjects had to have had no prior treatment with Disease modifying anti-rheumatic drugs (DMARD) therapy or inadequate response to DMARD therapy. If a subject had received prior therapy with an antibody or binding protein to TNF (anti-TNF) or with recombinant IL-1 receptor antagonist (IL-1Ra), the subject may have discontinued treatment due to tolerability reasons but not have discontinued treatment because of an inadequate response. Subjects must also have discontinued DMARD therapy (except for sulfasalazine or hydroxychloroquine) for at least one month prior to randomization. Subjects could receive one NSAID and/or prednisone (≦10 mg/day) if they had been treated at a stable dose for at least one month prior to randomization.
Responses to treatment were evaluated by changes in ACR (e.g., ACR20) or EULAR criteria. Responses to treatment were measured at Weeks 2, 4, 6, 8, 10 and 12. Safety evaluations were also conducted at these time points. Holter monitoring and ECG were not performed at every time point. Four weeks after completion of the study, responses to treatment and safety evaluations were conducted on subjects.
ACR Preliminary Definition of Improvement in RA (ACR20):
Required: ≧20% improvement in tender joint count • ≧20% improvement in swollen joint count And, at least 20% improvement in 3 of the following 5: • Subject pain assessment • Subject global assessment • Physician global assessment • Subject self-assessed disability
Acute-phase reactant (CRP or ESR)
The ACR50 and ACR70 responses require ≧50% and ≧70% improvement, respectively, in the same criteria as described for the ACR20 response.
EULAR is described in Fransen et al., Clinical and Experimental Rheumatology 23 (Suppl. 39): S93-99, 2005, which is hereby incorporated by reference in its entirety. EULAR is based on the Disease Activity Score (DAS), a clinical index of RA disease activity that combines information from swollen joints, tender joints, the acute phase response and general health into one continuous measure of rheumatoid inflammation. DAS28 is an index similar to the original DAS, consisting of a 28 tender joint count (range 0-28), a 28 swollen joint count (range 0-28), erythrocyte sedimentation rate (ESR) and an optional general health assessment on a visual analogue scale (range 0-100).

[2] = test system: subjects with moderate or severe RA; assay: Safety evaluations in the twelve-week RA study (adverse events, laboratory, Holter, ECG); assay type: in vivo, human; settings: for Mean increase in QTcF: end of treatment, baseline approximately 400 msec, placebo −0.6 msec
Protocol: VX-702 was examined in a randomized, placebo-controlled, multiple-dose, blinded, dose escalation study in 315 subjects with moderate or severe RA. Subjects were divided into 3 approximately equal-sized groups of 100-105 subjects each. In one group, subjects received 5 mg VX-702 once daily or 2.5 mg VX-702 twice daily (total 5 mg/day) for twelve weeks. Another group received 10 mg VX-702 once daily for twelve weeks. Another group subjects received placebo once daily for twelve weeks. Safety evaluations of subjects in the study were also conducted. These included physical examinations, including vital signs measurements (including blood pressure, heart rate, respiration rate, and temperature); clinical laboratory assessments (hematology, chemistry, and urinalysis testing); creatinine clearance; adverse events; Holter monitoring and electrocardiogram (ECG) (12-lead). Responses to treatment were evaluated by changes in ACR (e.g., ACR20) or EULAR criteria. Responses to treatment were measured at Weeks 2, 4, 6, 8, 10 and 12. Safety evaluations were also conducted at these time points. Holter monitoring and ECG were not performed at every time point. Four weeks after completion of the study, responses to treatment and safety evaluations were conducted on subjects.

healthy subjects = assay: Phase 1 studies, tolerability; assay type: in vivo, human
Protocol: (§1) Five Phase 1 studies of VX-702 in healthy subjects and one Phase 2a study evaluating the safety and tolerability of VX-702 in subjects with unstable angina pectoris (UAP) who were scheduled for percutaneous coronary intervention with or without stenting were performed. Multiple dose studies of VX-702 were conducted for up to 28 days.

[3] = test system: subjects with unstable angina pectoris (UAP); assay: Phase 2a study, safety and tolerability; assay type: in vivo, human; settings: up to 40 mg/day for 5 days
Protocol: as §1

Oral bioavailability = settings: in vivo
patients with RA [4] = settings: standard of care in patients with RA; cited from earlier work
patients with RA [5] = settings: etanercept by injection in combination with methotrexate; cited from earlier work

Oral bioavailability (Oral bioavailability): orally bioavailable
Molecule: NC(=O)c1ccc(N(C(N)=O)c2c(F)cccc2F)nc1-c1ccc(F)cc1F [VX-702]
ACR 20 Response ([1]; 5 mg VX-702 per day): 36%
EULAR Response (moderate or good) ([1]; 5 mg VX-702 per day): 40%
Improvement from baseline in DAS28 ([1]; 5 mg VX-702 per day): −1.0
Mean reduction in morning stiffness ([1]; 5 mg VX-702 per day): -98 min
Percent Change in Swollen Joints ([1]; 5 mg VX-702 per day): −35%
Percent Change in Tender Joints ([1]; 5 mg VX-702 per day): −28%
Percent Improvement in DAS ([1]; 5 mg VX-702 per day): −15%
Percent reduction in morning stiffness ([1]; 5 mg VX-702 per day): −21.6%
EULAR Response (moderate or good) ([1]; 5 mg VX-702 per day, listed as 702): 40%
Symptoms of RA compared to placebo ([1]; 5 mg or 10 mg once daily for twelve weeks, Week 12): showed an improvement in their symptoms
ACR 20 Response ([1]; 10 mg VX-702 once daily): 40%
EULAR Response (moderate or good) ([1]; 10 mg VX-702 once daily): 44%
Improvement from baseline in DAS28 ([1]; 10 mg VX-702 once daily): −1.2
Mean reduction in morning stiffness ([1]; 10 mg VX-702 once daily): -82 min
Percent Change in Swollen Joints ([1]; 10 mg VX-702 once daily): −46%
Percent Change in Tender Joints ([1]; 10 mg VX-702 once daily): −36%
Percent Improvement in DAS ([1]; 10 mg VX-702 once daily): −18%
Percent reduction in morning stiffness ([1]; 10 mg VX-702 once daily): −2.7%
ACR20 response rates, dose-response ([1]; placebo, 5 mg, 10 mg, Jonckheere-Terpstra test, p=0.02): dose-dependent statistically significant increase
Premature discontinuations for adverse events, patients ([2]; 5 mg VX-702, twelve weeks): 3%
Mean increase in QTcF ([2]; 5 mg group): 3 ms
Premature discontinuations for adverse events, patients ([2]; 10 mg VX-702, twelve weeks): 5%
Mean increase in QTcF ([2]; 10 mg group): 6 ms
Effects on laboratory parameters, including liver function tests ([2]; 5 or 10 mg/day, twelve weeks): No clinically significant effects
Severity of adverse events ([2]; 5 or 10 mg/day, twelve weeks): generally mild to moderate; also recorded: generally rated mild or moderate
Tolerability ([2]; 5 or 10 mg/day, twelve weeks): well tolerated
Holter monitoring: ventricular ectopic activity and arrhythmias versus placebo ([2]; 24 to 72-hour continuous EKG, 6 times/patient): did not reveal an increased tendency for arrhythmias
Skin disorders (rash, acne, itching), patients ([2]; VX-702-treated patients): approximately 9%
Isolated serious adverse events, patients ([2]; VX-702-treated patients (5 and 10 mg groups)): 4-7%
Infections (upper respiratory infections, gastroenteritis, nasopharyngitis, etc), patients ([2]; VX-702-treated patients, placebo 5%): 10%
Gastrointestinal disorders (nausea, vomiting, diarrhea), patients ([2]; VX-702-treated patients, placebo 6%): 8%
Patients with maximal increase in QTcF of >60 msec ([2]; at any point in the study): No patient
Patients with ALT value above the upper limit of normal ([2]; at each on-treatment visit, placebo 1-2%): 2-4%
Patients discontinued for elevations in liver function tests ([2]; twelve weeks): No patients
Patients with ALT elevation to three times the upper limit of normal ([2]; twelve weeks): No patient
Severity of adverse events (healthy subjects; Phase 1, healthy subjects): mild or moderate severity
Tolerability (healthy subjects; dosages of up to 20 mg/day, multiple dose up to 28 days, healthy subjects): moderately to well tolerated
Severity of adverse events [3]: mild to moderate severity

Molecule: CN(Cc1cnc2nc(N)nc(N)c2n1)c1ccc(C(=O)N[C@@H](CCC(=O)O)C(=O)O)cc1 [methotrexate]
Response (improvement) often observed (patients with RA [4]): less than 50%

Molecule: etanercept
Clinical remission rate (patients with RA [5]): 35%
